Reference: patent US5070210A, “Novel ketenimines as intermediates for insecticides” (ICI Americas Inc., priority 1990, dated 1991)

Legend:
Format in all cases: in vivo
[1] = tested on: Housefly [Musca domestica]; experiment: Housefly insecticidal test; settings: μg per 25 female flies; mortality after 48 hours
In short: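 Acetone solutions (with 0.01% peanut oil) dried onto dish bottoms, then 25 female flies, 1-2 days old, caged over the residue with sugar water. Mortality scored at 48 hours; LC50 from dosage-mortality curves, in μg per 25 female flies, top level 100 μg.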

[2] = tested on: Tobacco Budworm [Heliothis virescens (Fabricius)] eggs; experiment: Tobacco budworm egg test; settings: 2-day old eggs, percent in solution
In short: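 Mortality of dipped eggs served as read-out, recorded after untreated controls hatched and began feeding. Treatments used acetone solutions from 0.1% downward, with eggs incubated at 78° F; LC50 is expressed as percent of compound in the solution.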

[3] = tested on: Cabbage Looper [Trichoplusia ni (Hubner)]; experiment: Cabbage looper insecticidal test; settings: second-instar larvae, percent in solution; 3-5 days
In short: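 Steps: dilute compound in 50-50 acetone-water from 0.1% downward; immerse cotyledon pieces 2-3 s and dry; place in humid petri dishes with five second-instar larvae; record mortality at 3-5 days. Dosage-mortality curves yield LC50 as percent in solution.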

[4] = tested on: Maize weevil [Sitophilus Zeamais (Motschulsky)]; experiment: Maize weevil insecticidal test; settings: adult weevils, percent in solution; 48 hours
In short: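 LC50, in percent of compound in solution, was derived from dosage-mortality curves after 48 h at about 25 °C. Ten adult weevils per container fed on four corn seeds briefly immersed in acetone:water (50:50) solutions of up to 0.01% and dried.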

Structure (SMILES): CC(C)C(=Nc1ccc(F)c(I)c1)OCc1cccc(Oc2ccc(F)cc2)c1 [Compound 449]
- LC50, HF [1]: 13 µg
- LC50, TBW, E (TBW-E) [2]: 0.025%
- LC50, CL [3]: 0.0001%
- LC50, MW [4]: 0.0075%

Structure (SMILES): CC(C)C(=Nc1cccc(C(F)(F)F)c1)OC(C)c1cccc(Oc2ccccc2)c1 (stereo not drawn) [Compound 459]
- LC50, HF [1]: > 100 µg
- LC50, TBW, E (TBW-E) [2]: 0.1%
- LC50, CL [3]: 0.008%
- LC50, MW [4]: > 0.01%

Structure (SMILES): CC(C)C(=Nc1ccc(F)c(Cl)c1)OCc1cccc(Oc2c(F)c(F)c(F)c(F)c2F)c1 [Compound 460]
- LC50, HF [1]: > 100 µg
- LC50, TBW, E (TBW-E) [2]: > 0.1%
- LC50, CL [3]: 0.02%
- LC50, MW [4]: > 0.01%

Structure (SMILES): CC(C)C(=Nc1ccc(I)c(Cl)c1)OCc1cccc(Oc2ccc(Cl)cc2)n1 [Compound 471]
- LC50, HF [1]: < 100 µg
- LC50, TBW, E (TBW-E) [2]: 0.018%
- LC50, CL [3]: 0.00018%
- LC50, MW [4]: > 0.01%

Structure (SMILES): CC(C)C(=Nc1cccc(C(F)(F)F)c1)OCc1cccc(Oc2ccc(Cl)cc2)n1 [Compound 477]
- LC50, HF [1]: 20 µg
- LC50, TBW, E (TBW-E) [2]: > 0.1%
- LC50, CL [3]: 0.0003%
- LC50, MW [4]: 0.0076%

Structure (SMILES): CC(C)C(=Nc1ccc(Br)cc1)OCc1coc(Cc2ccccc2)c1 [Compound 478]
- LC50, HF [1]: 15 µg
- LC50, TBW, E (TBW-E) [2]: > 0.1%
- LC50, CL [3]: 0.0037%
- LC50, MW [4]: > 0.01%

Structure (SMILES): CC(C)C(=Nc1cccc(C(F)(F)F)c1)OCc1coc(Cc2ccccc2)c1 [Compound 482]
- LC50, HF [1]: 36 µg
- LC50, TBW, E (TBW-E) [2]: > 0.1%
- LC50, CL [3]: 0.01%
- LC50, MW [4]: > 0.01%

Structure (SMILES): CC(C)C(=Nc1ccc2c(c1)OCO2)OCc1coc(Cc2ccccc2)c1 [Compound 483]
- LC50, HF [1]: 6 µg
- LC50, TBW, E (TBW-E) [2]: 0.05%
- LC50, CL [3]: 0.001%
- LC50, MW [4]: > 0.01%

Structure (SMILES): CC(C)C(=Nc1ccc(F)cc1F)OCc1coc(Cc2ccccc2)c1 [Compound 486]
- LC50, HF [1]: 15 µg
- LC50, TBW, E (TBW-E) [2]: > 0.1%
- LC50, CL [3]: > 0.1%
- LC50, MW [4]: > 0.01%

Structure (SMILES): COCc1c(F)c(F)c(COC(=Nc2cccc(C(F)(F)F)c2)C(C)C)c(F)c1F [Compound 503]
- LC50, HF [1]: 21 µg
- LC50, TBW, E (TBW-E) [2]: 0.08%
- LC50, CL [3]: 0.001%
- LC50, MW [4]: > 0.01%

Structure (SMILES): CC(C)C(=Nc1ccc(C(F)(F)F)cc1)OCc1cccc(Oc2ccccc2)n1 [Compound 504]
- LC50, HF [1]: < 100 µg
- LC50, TBW, E (TBW-E) [2]: 0.05%
- LC50, CL [3]: 0.00025%
- LC50, MW [4]: 0.01%

Structure (SMILES): COCc1c(F)c(F)c(COC(=Nc2ccc(F)c(Cl)c2)C(C)C)c(F)c1F [Compound 505]
- LC50, HF [1]: 14 µg
- LC50, TBW, E (TBW-E) [2]: 0.09%
- LC50, CL [3]: 0.0024%
- LC50, MW [4]: > 0.01%

Structure (SMILES): CC(C)C(=Nc1cccc(C(F)(F)F)c1)OCc1cc(Oc2ccccc2)ccn1 [Compound 506]
- LC50, HF [1]: 40 µg
- LC50, TBW, E (TBW-E) [2]: > 0.1%
- LC50, CL [3]: 0.005%
- LC50, MW [4]: > 0.01%

Structure (SMILES): CC(C)C(=Nc1cccc(C(F)(F)F)c1)OCc1ccnc(Oc2ccccc2)c1 [Compound 507]
- LC50, HF [1]: 93 µg
- LC50, TBW, E (TBW-E) [2]: > 0.1%
- LC50, CL [3]: 0.002%
- LC50, MW [4]: > 0.01%

Structure (SMILES): CC(C)C(=Nc1cccc(C(F)(F)F)c1)OCc1cc(Oc2ccc(Cl)cc2)ccn1 [Compound 509]
- LC50, HF [1]: 79 µg
- LC50, TBW, E (TBW-E) [2]: > 0.1%
- LC50, CL [3]: 0.0075%
- LC50, MW [4]: > 0.01%

Structure (SMILES): CC(C)C(=Nc1ccc(F)c(Cl)c1)OCc1ccnc(Oc2ccccc2)c1 [Compound 510]
- LC50, HF [1]: 54 µg
- LC50, TBW, E (TBW-E) [2]: > 0.1%
- LC50, CL [3]: 0.017%
- LC50, MW [4]: > 0.01%

Structure (SMILES): CC(C)C(=Nc1ccc(F)c(Cl)c1)OCc1ccnc(Oc2ccc(F)cc2)c1 [Compound 511]
- LC50, HF [1]: 89 µg
- LC50, TBW, E (TBW-E) [2]: > 0.1%
- LC50, CL [3]: 0.0012%
- LC50, MW [4]: > 0.01%

Structure (SMILES): CC(C)C(=Nc1ccc(OC(F)(F)F)cc1)OCc1cccc(Oc2ccccc2)n1 [Compound 550]
- LC50, HF [1]: < 100 µg
- LC50, TBW, E (TBW-E) [2]: > 0.1%
- LC50, CL [3]: 0.00034%
- LC50, MW [4]: > 0.01%
